Test results: ChEMBL document CHEMBL3885861, “Open TG-GATES”

Species: Rattus norvegicus
Assay: Open TG-GATES - Regimen: Single
Type: toxicity, organism-based, Sprague-Dawley
Design: regimen Single, gender Male, age 6 weeks
Conditions: in vivo, po, 0 mg/kg, route gavage, dose level Control; for APTT / Bas / Eos / Fbg / Hb / Ht / Lym / MCH / MCHC / MCV / Mono / Neu / PT / Plat / RBC / Ret / WBC: tissue Blood; for KIDNEY_L / KIDNEY_R / KIDNEY_TOTAL: tissue Kidney; for LIVER: tissue Liver; for A/G / ALP / ALT / AST / BUN / CRE / Ca / Cl / DBIL / GLC / IP / K / LDH / Na / PL / RALB / TBIL / TC / TG / TP / gamma-GTP: tissue Plasma

CC(=O)Nc1ccc2c(c1)Cc1ccccc1-2 [2-ACETYLAMINOFLUORENE]
TERMINAL_BW (9 h): 217 g | APTT (9 h): 17.7 s | Bas (9 h): 0.8% | Eos (9 h): 0.8% | Fbg (9 h): 241.4 mg/dL | Hb (9 h): 13.9 g/dL | Ht (9 h): 40.5% | Lym (9 h): 75.2% | MCH (9 h): 21.8 pg | MCHC (9 h): 34.3% | MCV (9 h): 63.4 fL | Mono (9 h): 2.8% | Neu (9 h): 19.4% | PT (9 h): 12 s | Plat (9 h): 124 x10_4/uL | RBC (9 h): 639.4 x10_4/ul | Ret (9 h): 6.7% | WBC (9 h): 86.2 x10_2/uL | KIDNEY_L (9 h): 1 g | KIDNEY_R (9 h): 1 g | KIDNEY_TOTAL (9 h): 1.9 g | LIVER (9 h): 9.2 g | A/G (9 h): 1.5 | ALP (9 h): 861.2 IU/L | ALT (9 h): 32.4 IU/L | AST (9 h): 67.8 IU/L | BUN (9 h): 11.2 mg/dL | CRE (9 h): 0.4 mg/dL | Ca (9 h): 10.6 mg/dL | Cl (9 h): 104 meq/L | DBIL (9 h): 0.06 mg/dL | GLC (9 h): 210.4 mg/dL | IP (9 h): 9 mg/dL | K (9 h): 3.7 meq/L | LDH (9 h): 239.6 IU/L | Na (9 h): 141 meq/L | PL (9 h): 134.8 mg/dL | RALB (9 h): 3.5 g/dL | TBIL (9 h): 0.1 mg/dL | TC (9 h): 73.6 mg/dL | TG (9 h): 49.2 mg/dL | TP (9 h): 5.7 g/dL | gamma-GTP (9 h): 1 IU/L | TERMINAL_BW (24 h): 237.9 g | APTT (24 h): 20.8 s | Bas (24 h): 0.2% | Eos (24 h): 0.8% | Fbg (24 h): 217.2 mg/dL | Hb (24 h): 13.8 g/dL | Ht (24 h): 40.1% | Lym (24 h): 82% | MCH (24 h): 22.5 pg | MCHC (24 h): 34.3% | MCV (24 h): 65.4 fL | Mono (24 h): 3% | Neu (24 h): 13.2% | PT (24 h): 11.9 s | Plat (24 h): 121.3 x10_4/uL | RBC (24 h): 612 x10_4/ul | Ret (24 h): 6.8% | WBC (24 h): 101.1 x10_2/uL | KIDNEY_L (24 h): 1.1 g | KIDNEY_R (24 h): 1.1 g | KIDNEY_TOTAL (24 h): 2.1 g | LIVER (24 h): 11.4 g | A/G (24 h): 1.7 | ALP (24 h): 1055.8 IU/L | ALT (24 h): 40 IU/L | AST (24 h): 69.4 IU/L | BUN (24 h): 14.8 mg/dL | CRE (24 h): 0.4 mg/dL | Ca (24 h): 10.8 mg/dL | Cl (24 h): 103.8 meq/L | DBIL (24 h): 0.09 mg/dL | GLC (24 h): 214.6 mg/dL | IP (24 h): 8.3 mg/dL | K (24 h): 3.9 meq/L | LDH (24 h): 192.8 IU/L | Na (24 h): 140.4 meq/L | PL (24 h): 132.2 mg/dL | RALB (24 h): 3.4 g/dL | TBIL (24 h): 0.2 mg/dL | TC (24 h): 64.2 mg/dL | TG (24 h): 95.8 mg/dL | TP (24 h): 5.4 g/dL | gamma-GTP (24 h): 1.2 IU/L
